Where two headings read alike, the source gives them in different places.
How the values were obtained:
[1] = cited from earlier work; for adverse effects stated in the background text: no dose given
M-1 receptors = target: T1, M-1 receptors (Homo sapiens, UniProt P11229); details: cited from earlier work
T1 sequence (P11229 1-460): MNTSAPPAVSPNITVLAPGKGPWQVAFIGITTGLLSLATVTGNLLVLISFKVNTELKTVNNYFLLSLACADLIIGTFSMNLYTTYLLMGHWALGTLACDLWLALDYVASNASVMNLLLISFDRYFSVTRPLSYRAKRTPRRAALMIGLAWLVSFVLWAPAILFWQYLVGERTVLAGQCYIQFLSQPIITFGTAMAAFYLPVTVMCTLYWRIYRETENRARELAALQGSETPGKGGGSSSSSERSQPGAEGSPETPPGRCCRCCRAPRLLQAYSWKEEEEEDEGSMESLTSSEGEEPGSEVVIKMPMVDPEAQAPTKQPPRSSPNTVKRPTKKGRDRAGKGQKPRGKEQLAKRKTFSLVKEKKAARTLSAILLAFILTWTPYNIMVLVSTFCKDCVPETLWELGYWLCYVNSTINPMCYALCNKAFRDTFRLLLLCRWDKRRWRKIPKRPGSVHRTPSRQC

overactive bladder (OAB) = experiment: Case reports of subjects with OAB treated with local diazepam; assay type: in vivo, human
Experimental: A person had been suffering from symptoms consistent with OAB for several months. Following a confirmatory diagnosis of OAB, the subject was instructed to use vaginal suppositories containing 20 mg of diazepam in a glycerine base three times a day. […] The subject continues to do well on a maintenance dose of 20 mg once or twice a day.
A person had been suffering from symptoms consistent with OAB for several months. A diagnosis of OAB was confirmed by an urologist. A nurse then administered intraurethrally to the subject 2 ml of a gel formulation containing 10 mg/ml of diazepam in 2% methylcellulose, providing a total dose of 20 mg of diazepam. […] This subject is able to treat themself at home using the same type of formulation and the same route of administration up to 3 times per day as needed.
His symptoms were not relieved with high doses of oral diazepam but were well-controlled by intraurethral instillations of 2 ml of diazepam in a gel formulation containing 10 mg/ml of diazepam in hydroethylcellulose, providing a total of 20 mg of diazepam administered at bedtime.
A person with advanced dementia suffered from OAB symptoms including nocturia and urge incontinence. Despite the use of incontinence pads, the subject would frequently arise throughout the night without requesting assistance to go the bathroom. This led to numerous falls.

anesthetized rats = experiment: Cystometries (isovolumetric bladder contractions) in anesthetized rats; assay type: in vivo
Experimental: Effect of diazepam administered intravenously and intravaginally on cystometries in anesthetized rats.
Methods: Female rats were anesthetized with urethane (1.3 g/kg intraperitoneally) given as a divided dose of 80% initially and 20% 15 minutes later. Body temperature was maintained at 37±2° C. throughout the experiment. A catheter was inserted into the bladder through the urethra. Then, the urethra was ligated at the level of the urinary meatus. After an abdominal incision, the ureters were also ligated. The jugular vein was catheterized to allow administration of test compounds. The bladder catheter was connected via a T-tube to a strain gauge to measure intravesicular pressure. Isovolumetric bladder contractions were induced by stepwise injections of physiological saline at room temperature (100 μl every 5 min) until stable rhythmic bladder contractions occurred. After stabilization and a control period of at least 30 min, characterized by stable and reproducible bladder contractions (used as basal values), test substance or vehicle was administered i.v. (as a bolus under a volume of 200 μl) or i.vag. (under a volume of 100 μl using a syringe). The drug effects were evaluated for 1 hour following the end of administration. Each animal received one dose of one test substance.

[2] = in vivo; cited from earlier work
[3] = Example 6, intraurethral 1 ml gel 20 mg/ml in 3% hydroxyethylcellulose three times per day
[4] = intravaginal, vs basal values, through 30 minutes post administration

## NC(=O)C(c1ccccc1)(c1ccccc1)[C@@H]1CCN(CCc2ccc3c(c2)CCO3)C1 [darifenacin]
[1]; 7.5 mg per day, constipation
  Adverse Events: constipation
[1]; 7.5 mg per day, dry mouth
  Adverse Events: dry mouth
[1]; 15 mg per day, constipation
  Adverse Events: constipation
[1]; 15 mg per day, dry mouth
  Adverse Events: dry mouth
[1]; 15 mg per day, dyspepsia
  Adverse Events: dyspepsia
M-1 receptors
  affinity for M-1 receptors: reduced affinity for M-1 receptors

## CN1C(=O)CN=C(c2ccccc2)c2cc(Cl)ccc21 [diazepam, 7-chloro-1,3-dihydro-1-methyl-5-phenyl-2H-1,4-benzodiazepin-2-one]
Overactive bladder (OAB); Example 3, person, vaginal suppositories 20 mg in glycerine base three times a day
  symptoms of urgency, frequency and incontinence: greatly reduced
Overactive bladder (OAB); Example 3, vaginal suppositories 20 mg in glycerine base three times a day
  cognitive impairment: No cognitive impairment was observed or reported
Overactive bladder (OAB); Example 4, intraurethral 2 ml gel 10 mg/ml in 2% methylcellulose (20 mg)
  cognitive impairment: without causing any observable cognitive impairment
Overactive bladder (OAB); Example 4, person, intraurethral 2 ml gel 10 mg/ml in 2% methylcellulose (20 mg)
  OAB symptoms: reduced OAB symptoms significantly
Overactive bladder (OAB); Example 5, intraurethral 2 ml gel 10 mg/ml (20 mg) at bedtime
  adverse effects: did not suffer any adverse effects
Overactive bladder (OAB); Example 5, intraurethral 2 ml gel 10 mg/ml in hydroethylcellulose (20 mg) at bedtime
  symptoms (nocturia, nighttime urinary incontinence): well-controlled
Overactive bladder (OAB); Example 5, person, high doses of oral diazepam
  symptoms (nocturia, nighttime urinary incontinence): not relieved
Overactive bladder (OAB); [3]
  adverse effects: no apparent adverse effects
  cognitive impairment: without causing cognitive impairment
  daytime urgency: reduced daytime urgency
  nighttime falls: near-absence of nighttime falls
  nocturia (sleep through the night): able to sleep in bed throughout the night without arising to urinate
Overactive bladder (OAB); Example 6, person, oral antimuscarinic and oral diazepam
  cognitive impairments: led to cognitive impairments which increased the number of falls from bed
Anesthetized rats; intravaginal vs intravenous administration
  reductions in micturition frequency and amplitude, intravaginal compared with intravenous: comparable to those achieved by intraveneous administration
Anesthetized rats; [4]
  micturition amplitude (threshold for voiding): significant reductions
  micturition frequency: significant reductions

## CC(C)C(=O)Oc1ccc(CO)cc1[C@H](CCN(C(C)C)C(C)C)c1ccccc1 [fesoterodine]
[1]; 4 mg or 8 mg QD, constipation
  Adverse Events: constipation
[1]; 4 mg or 8 mg QD, dry mouth
  Adverse Events: dry mouth
[1]; 4 mg or 8 mg QD, urinary tract infection
  Adverse Events: urinary tract infection
[1]
  adverse effects stated in the background text: associated with constipation, dry mouth and sometimes urinary tract infection

## CCN(CC)CC#CCOC(=O)C(O)(c1ccccc1)C1CCCCC1 (stereo not drawn) [oxybutynin chloride]
[1]; 3.9 mg transdermal per day, dry mouth
  Adverse Events: dry mouth
[1]; 3.9 mg transdermal per day, erythema
  Adverse Events: erythema
[1]; 3.9 mg transdermal per day, pruritis
  Adverse Events: pruritis
[1]
  adverse effects stated in the background text: highly associated with adverse cognitive effects and effects on sleep architecture and quality

## O=C(O[C@H]1C[C@H]2CC[C@@H](C1)[N+]21CCCC1)C(O)(c1ccccc1)c1ccccc1 [trospium chloride]
[2]
  fraction excreted completely active: 60%
[1]; 20 mg × 2 per day, constipation
  Adverse Events: constipation
[1]; 20 mg × 2 per day, dry mouth
  Adverse Events: dry mouth

From patent publication US20100273783A1, “Compositions and Methods for Treating and Preventing Overactive Bladder and Conditions Associated Therewith” (OPTMED, INC., priority 2009, published 2010)
